Measurements reported in patent US20230172962A1, “NRTIS, NRTI METABOLITES, AND NRTI ANALOGS FOR MACULAR DEGENERATION AND VIRAL INFECTIONS” (priority 2020, published 2023).

Key:
[1] = tested on: retinal pigmented epithelium (RPE); assay: Alu RNA-induced RPE degeneration, mouse model of atrophic (dry) macular degeneration; format: in vivo; conditions: mice, subretinal Alu RNA, intravitreous 1 mM GAZT or LSO, 2 mM AMT; ZO-1 RPE flat mounts 7 days after injection; FIG. 5
Method: (§1) Animals. Both male and female wild-type (WT) C57BL/6J mice (The Jackson Laboratory, Bar Harbor, Me., United States of America) between 6-10 weeks of age were used in this study. For all procedures, anesthesia was achieved by intraperitoneal injection of 100 mg/kg ketamine hydrochloride (Fort Dodge Animal Health, Overland Park, Kans., United States of America) and 10 mg/kg xylazine (Phoenix Scientific, Inc., St. Joseph, Mo., United States of America), and pupils were dilated with topical 1% tropicamide and 2.5% phenylephrine hydrochloride (Alcon Laboratories, Inc., Ft. Worth, Tex., United States of America). All animal experiments were approved by the Institutional Animal Care and Use Committees of the University of Virginia (Charlottesville, Va., United States of America) and was performed in accordance with the Statement for the Use of Animals in Ophthalmic and Visual Research of the Association for Research in Vision and Ophthalmology (Washington, D.C., United States of America).
(§2) Subretinal and intravitreous injections. Subretinal injections (SRI) (1 μl) and intravitreous injections (0.5 μl) in mice were performed using a 35-gauge needle (Ito Co.). In vitro transcribed Alu RNA (300 ng/μl) was injected into the subretinal space via SRI. 1 mM of 3′-Azido-3′-deoxythymidine β-D-glucuronide (GAZT; Cayman Chemical, Ann Arbor, Mich., United States of America), Lamivudine (R)-sulfoxide (LSO; Toronto Research Chemicals, Toronto, Canada) 2 mM of 3′-Amino-3′-deoxythymidine (AMT; Toronto Research Chemicals), or PBS was injected into the vitreous humor. Kamuvudines including but not limited to K-8 (2-Et-AZT) and K-9 (3-Me-3TC, a.k.a. 3-Me-lamivudine) were previously described (see U.S. Pat. No. 10,294,220, which is incorporated herein by reference in its entirety).

[2] = tested on: laser-induced choroidal neovascularization (CNV); assay: Laser-induced choroidal neovascularization, mouse model of neovascular (wet) macular degeneration; format: in vivo; conditions: wild-type C57BL/6J mice, CNV lesion volume 7 days after laser; FIGS. 3A, 3B, 4
Method: as §1, §2
Choroidal neovascularization. Experimental choroidal neovascularization (CNV) was induced via laser photocoagulation (OcuLight GL, IRIDEX Corp., Mountain View, Calif., United States of America; 180 mW, 100 ms, 75 μm) in both eyes. The volume of the CNV lesions was measured after 7 days using a scanning laser confocal microscope (A1R Nikon confocal microscope system, Nikon USA, Melville, N.Y., United States of America) after 0.7% FITC-isolectin B4 staining (Vector Laboratories, Burlingame, Calif., United States of America, USA). The volume of each lesion was calculated using FIJI software (Schindelin et al., 2012).
The ability of NRTI, NRTI metabolites, and NRTI analogs to inhibit neovascular (wet) macular degeneration in a mouse model was tested. The results are shown in FIGS. 3A and 3B and in FIG. 4.

IL-1β release = assay: ELISA of Alu RNA-induced IL-1β release from BMDMs; format: cell-based; conditions: mouse BMDMs, 200 μM compound for 1 hour, then Alu RNA transfection overnight, FIG. 2
Method: (§3) Cell Stimulation. Bone marrow derived macrophages (BMDMs) were treated with 200 μM Zidovudine (AZT), GAZT, AMT, or LSO for 1 hour. Cells were transfected with Alu RNA overnight using Lipofectamine 3000 (Invitrogen) according to manufacturer's instructions.
Enzyme-linked immunosorbent assay (ELISA). 1.2 million cells/mL were seeded per well in 6-well cell culture dishes overnight and stimulated as mentioned above. Secreted mouse IL-1β in the medium were detected by ELISA (R&D Systems, Inc., Minneapolis, Minn., United States of America) according to the manufacturer's instructions.
The ability of NRTI and NRTI metabolites to inhibit IL-1β release was tested by ELISA.

[3] = tested on: cleavage of pro-caspase-1 into active caspase-1 (NLRP3 inflammasome activation); assay: Western blot of Alu RNA-induced caspase-1 cleavage (inflammasome activation) in BMDMs; format: cell-based; conditions: mouse BMDMs, 200 μM compound for 1 hour, then Alu RNA transfection overnight, FIG. 1
Method: as §3
Western blotting. Serum free media (1 mL) from stimulated BMDMs was transferred into fresh tubes and centrifuged for 10 min at 12,000 rpm at 4° C. 15 μl of 10% sodium deoxycholate was added to the supernatants, vortexed and kept on ice. 72 μl Trichloroacetic acid (Sigma-Aldrich, St. Louis,. Mo., United States of America) was subsequently added and the tubes were kept on ice overnight. After centrifugation for 30 min at 12,000 rpm at 4° C., the pellet was washed twice with 500 μl ice-cold acetone. The pellet was dried and boiled with LDS Sample Buffer and β-mercaptoethanol (Sigma-Aldrich). The precipitated protein was analyzed by immunoblotting.
The ability of NRTI and NRTI metabolites to inhibit inflammasome activation was tested by western blot.

subretinal fibrosis = assay: Subretinal fibrosis after laser injury / subretinal Alu RNA in mice; format: in vivo, mouse; conditions: wild-type mice, intravitreous injection, laser injury with subretinal Alu RNA, collagen type 1 staining after 7 days, FIGS. 6B
Method: as §1
Subretinal and intravitreous injections. Subretinal injections (SRI) (1 μl) and intravitreous injections (0.5 μl) in mice were performed using a 35-gauge needle (Ito Co.). […]
Subretinal fibrosis. […] After mounting in slides, the RPE flat mounts were imaged using a scanning laser confocal microscope (A1R Nikon confocal microscope system, Nikon USA) and the volume of each lesion was calculated by FIJI software. […]

[4] = Cataract formation after administration of fluoxetine preparations to the eye; format: in vivo

Cc1cn([C@H]2C[C@H](N=[N+]=[N-])[C@@H](CO[C@@H]3O[C@H](C(=O)O)[C@@H](O)[C@H](O)[C@H]3O)O2)c(=O)[nH]c1=O [GAZT, 3′-Azido-3′-deoxythymidine β-D-glucuronide]
Alu RNA-induced RPE degeneration [1]: inhibited
laser-induced choroidal neovascularization (CNV) volume [2]: inhibited
Alu RNA-induced IL-1β release (IL-1β release): inhibited
Alu RNA-induced cleavage of pro-caspase-1 (50 kDa band) into active caspase-1 (20 kDa band) [3]: inhibited

Cc1cn([C@H]2C[C@H](N=[N+]=[N-])[C@@H](CO)O2)c(=O)[nH]c1=O [AZT, 1-[(2R,4S,5S)-4-Azido-5-(hydroxymethyl)oxolan-2-yl]-5-methylpyrimidine-2,4-dione, reference compound]
laser-induced choroidal neovascularization (CNV) volume [2]: inhibited
Alu RNA-induced IL-1β release (IL-1β release): inhibited
Alu RNA-induced cleavage of pro-caspase-1 (50 kDa band) into active caspase-1 (20 kDa band) [3]: inhibited
subretinal fibrosis volume (subretinal fibrosis): reduced subretinal fibrosis volume

CCOCC1OC(n2ccc(N(CC)CC)nc2=O)CS1 (stereo not drawn) [Kamuvudine K-9]
laser-induced choroidal neovascularization (CNV) volume [2]: inhibited

Nc1ccn([C@@H]2C[S@@+]([O-])[C@H](CO)O2)c(=O)n1 [LSO, Lamivudine (R)-sulfoxide]
Alu RNA-induced RPE degeneration [1]: inhibited
Alu RNA-induced IL-1β release (IL-1β release): inhibited

CNCCC(Oc1ccc(C(F)(F)F)cc1)c1ccccc1 (racemic) [racemic fluoxetine, fluoxetine]
cataract formation, share of subjects [4]: up to 50%

Cc1cn([C@H]2C[C@H](N)[C@@H](CO)O2)c(=O)[nH]c1=O [AMT, 3′-Amino-3′-deoxythymidine]
Alu RNA-induced RPE degeneration [1]: inhibited
laser-induced choroidal neovascularization (CNV) volume [2]: inhibited
Alu RNA-induced IL-1β release (IL-1β release): inhibited
Alu RNA-induced cleavage of pro-caspase-1 (50 kDa band) into active caspase-1 (20 kDa band) [3]: inhibited

CCOC[C@H]1O[C@@H](n2cc(C)c(=O)n(CC)c2=O)C[C@@H]1N=[N+]=[N-] [Kamuvudine K-8, 1-[(2R,4S,5S)-4-azide-5-(ethoxymethyl)oxolan-2-yl)-3-ethyl-5-methyl-1,2,3,4-etrahydropyrimidine-2,4-dione]
laser-induced choroidal neovascularization (CNV) volume [2]: inhibited
subretinal fibrosis volume (subretinal fibrosis): reduced the volume of subretinal fibrosis
